target: T1, PAF receptor (Homo sapiens, UniProt P25105); assay: Assay A: Human Platelet Receptor Binding (inhibition of specific [^3 H]PAF binding to human platelet membrane preparation); conditions: 0.75 nM [^3 H]PAF, human platelet membranes, 30 minutes at 24° C.
T1 construct: human platelet membrane preparation; tissue Lifesource, Inc. (Glenview, Ill.); host or cells: human packed platelets (membrane preparation)
Description: Compounds of the invention were evaluated for their ability to inhibit specific binding of [^3 H]PAF to human platelet membrane preparation. Human packed platelets were obtained from Lifesource, Inc. (Glenview, Ill.) and washed 3 times with 10 mM Trizma pH 7.0, 2 mM EDTA (dipotassium salt), 150 mM KCl and then once with 10 mM Trizma 7.4, 20 mM CaCl2. The platelets were broken by freezing in a dry ice-ethanol bath, followed by thawing in 24° C. water baths. The preparation was centrifuged (40,000×g, 20 minutes, 4'C) and the pellet suspended in 10 mM Trizma 7.4, 20 mM CaCl2, 5 mg/ml human albumin. Protein concentration in the platelet membrane preparation was determined by the Lowry method [O. H. Lowry et al., J. Biol. Chem., 193, 265-275 (1951)]. Aliquots of the membrane preparation were stored at -70° C. Each preparation was characterized for PAF receptor number and dissociation constant (Kd). In binding assays 5 μl of test compound, solubilized in DMSO, was added to polypropylene tubes along with 0.75 nM [^3 H]PAF and 200 mcl [0.075 nM] of membranes and 95 μl 10 mM Trizma 7.4, 20 mM CaCl2, 5 mg/ml human albumin. Tubes were incubated for 30 minutes at 24° C. The incubation was terminated by adding 4 ml of ice-cold 10 mM Trizma pH 7.4, 20 mM CaCl2 and 20 mg/ml BSA prior to vacuum filtration using Whatman GF/C filters. Filters were prepared and counted for a scintillation counter. All DPM values were corrected for background and isotope decay. Triplicate determinations for single doses were averaged. The amount of non-specific binding was subtracted from all dose averages, giving an amount of specific binding in all cases. The IC50 values for the compounds of the invention were determined by the Allfit program using percent displacement data. (Allfit is a `basic` computer program for simultaneous curve fitting of a family of signoidal dose-response curves using the four parameter logistic equation.) Results are shown in Table I.

T1 sequence (P25105 whole entry): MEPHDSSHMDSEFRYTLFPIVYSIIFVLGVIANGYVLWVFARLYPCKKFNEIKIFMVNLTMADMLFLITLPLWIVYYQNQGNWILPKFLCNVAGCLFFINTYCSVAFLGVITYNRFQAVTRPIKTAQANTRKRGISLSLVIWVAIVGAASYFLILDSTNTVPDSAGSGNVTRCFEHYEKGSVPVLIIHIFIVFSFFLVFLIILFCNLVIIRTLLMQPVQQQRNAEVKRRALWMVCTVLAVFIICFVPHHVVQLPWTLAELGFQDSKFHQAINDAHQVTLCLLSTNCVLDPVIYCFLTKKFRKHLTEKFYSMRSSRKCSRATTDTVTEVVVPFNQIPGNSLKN

IC50 [nM]	Structure (SMILES)
38	COc1cc(C(=O)N(C(C)C)C2CCCCC2)ccc1Cn1ccc2ncccc21 [Example 1, N-cyclohexyl-3-methoxy-N-(1-methylethyl)-4-(1H-pyrrolo[3,2-b]pyridin-1-ylmethyl)benzamide]
39	Cc1cc(C(=O)N(C2CCCCC2)C2CCCC2)ccc1Cn1ccc2ncccc21 [Example 6, N-cyclohexyl-N-cyclopentyl-3-methyl-4-(1H-pyrrolo[3,2-b]pyridin-1-ylmethyl)benzamide]
15	COc1cc(Cn2ccc3ncccc32)ccc1C(=O)N(C1CCCC1)C1CC(C)CC(C)C1 (stereo not shown) [Example 5, N-cyclopentyl-N-(3,5-dimethylcyclohexyl)-2-methoxy-4-(1H-pyrrolo[3,2-b]pyridin-1-ylmethyl)benzamide]
8	CC(C)N(C(=O)c1ccc(Cn2ccc3ncccc32)c(Br)c1)C1CCCCC1 [Example 7, 3-bromo-N-cyclohexyl-N-(1-methylethyl)-4-(1H-pyrrolo[3,2-b]pyridin-1-ylmethyl)benzamide]
2	COc1cc(Cn2ccc3ncccc32)ccc1C(=O)N(C(C)C)C1CCCCC1 [Example 3, N-cyclohexyl-2-methoxy-N-(1-methylethyl)-4-(1H-pyrrolo[3,2-b]pyridin-1-ylmethyl)benzamide]
7	COc1cc(Cn2ccc3ncccc32)ccc1C(=O)N(C1CCCCC1)C1CCC1 [Example 4, N-cyclobutyl-N-cyclohexyl-2-methoxy-4-(1H-pyrrolo[3,2-b]pyridin-1-ylmethyl)benzamide]

tested on: human platelets; assay: Assay B: Human Platelet Aggregation Inhibition (PAF-induced aggregation in human platelet-rich plasma); format: cell-based; conditions: 37°
Description: Compounds of the invention were evaluated for their ability to inhibit PAF-induced aggregation of human platelets in a human-platelet-rich plasma. Venous blood was collected from donors who fasted for 8 hours and were instructed not to use antiinflammatory drugs for 2 weeks prior to the blood draw. Blood was collected into syringes containing 0.1 ml of 3.8% [w/v] citrate and centrifuged in polypropylene tubes at 150 xg for 20 minutes at room temperature. The platelet rich plasma [PRP] was collected and let sit for 20 minutes at room temperature. Platelet activating factor [PAF] was diluted in 0.9% NaCl with 0.25% bovine serum albumin. Silicon treated cuvettes with stir bars were placed in the 37° heating block of the platelet aggregometer [Bio/Data Corporation, Platelet Aggregation Profiler, Model PAP-4]. PRP and test compound were added to cuvettes and aggregation monitored for 10-15 seconds at 37° with stirring. PAF was added and aggregation monitored for an additional 3 minutes. Peak aggregation was considered the peak of the first aggregation wave, usually 45-60 seconds after PAF addition. Inhibition of aggregation was determined by the following: 1-[(% aggregation in the presence of compound).div.(% maximal aggregation)]. A log/logit transformation was used to determine half maximal inhibitory concentration of a test compound [IC50 ].

IC50 [nM]	Structure (SMILES)
2	COc1cc(C(=O)N(C(C)C)C2CCCCC2)ccc1Cn1ccc2ncccc21 [Example 1, N-cyclohexyl-3-methoxy-N-(1-methylethyl)-4-(1H-pyrrolo[3,2-b]pyridin-1-ylmethyl)benzamide]

From US5360907A, “Pyrrolo[3,2-B]pyridinylalkyl benzamide derivatives” (G.D. Searle & Co., priority 1993, dated 1994)
